According to ChEMBL document CHEMBL1201862, “PubChem BioAssay data set” (2004):
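Grown in 96-well plates, cells were treated for 48 hours with each compound at five concentrations. Insufficient inhibition: endpoint recorded as highest concentration tested. GI50: concentration for 50% inhibition of growth.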 Activity calls are given as the source filed them. No stated cut-off is given here; in the data, active = GI50 up to about 1.1 µM and inactive = higher.

Assays:
Assay in all cases: NCI tumour cell line growth inhibition, 48 h
[1] = system: CCRF-CEM
[2] = system: NCI-H226
[3] = system: SW-620
[4] = system: HOP-92
[5] = system: EKVX
[6] = system: SF-539
[7] = system: SN12C
[8] = system: RPMI-8226
[9] = system: SNB-75
[10] = system: OVCAR-5
[11] = system: 786-0
[12] = system: T47D
[13] = system: MCF7
[14] = system: NCI/ADR-RES
[15] = system: OVCAR-8
[16] = system: HL-60
[17] = system: Hs-578T
[18] = system: NCI-H522
[19] = system: CAKI-1
[20] = system: OVCAR-4
[21] = system: Malme-3M
[22] = system: MDA-N
[23] = system: BT-549
[24] = system: ACHN
[25] = system: HT-29
[26] = system: RXF 393
[27] = system: SR
[28] = system: SK-MEL-2
[29] = system: SK-MEL-28
[30] = system: DU-145
[31] = system: MDA-MB-231
[32] = system: OVCAR-3
[33] = system: MOLT-4
[34] = system: IGROV-1
[35] = system: SF-295
[36] = system: HCT-116
[37] = system: U-251
[38] = system: KM12
[39] = system: M14
[40] = system: SK-MEL-5
[41] = system: UACC-62
[42] = system: HCC 2998
[43] = system: NCI-H23
[44] = system: UACC-257
[45] = system: COLO 205
[46] = system: UO-31
[47] = system: SNB-19
[48] = system: A549
[49] = system: HOP-62
[50] = system: PC-3
[51] = system: MDA-MB-435
[52] = system: K562
[53] = system: NCI-H460
[54] = system: SF-268
[55] = system: LOX IMVI
[56] = system: TK-10
[57] = system: A498
[58] = system: HCT-15
[59] = system: SK-OV-3

How did the GI50 [1] turn out when `CSC(=O)/C=C1\SS/C(=C\C(=O)SC)S1` was run?
Its GI50 is 1.88 µM (inactive).

What about the GI50 [2] of the same compound?
The GI50 was 1.77 µM (inactive).

What about the GI50 [3] of the same compound?
The GI50 was 1.81 µM (inactive).

And the GI50 [4]?
Its GI50 is 2.83 µM (inactive).

And the GI50 [5]?
The GI50 was 2.4 µM (inactive).

What about the GI50 [6] of the same compound?
The GI50 was 2.72 µM (inactive).

What about the GI50 [7] of the same compound?
Its GI50 is 1.82 µM (inactive).

What about the GI50 [8] of the same compound?
Its GI50 is 1.55 µM (inactive).

And the GI50 [9]?
Its GI50 is 2.58 µM (inactive).

And the GI50 [10]?
The GI50 was 3.98 µM (inactive).

And the GI50 [11]?
The GI50 was 1.85 µM (inactive).

What about the GI50 [12] of the same compound?
Its GI50 is 5.83 µM (inactive).

What about the GI50 [13] of the same compound?
The GI50 was 2.74 µM (inactive).

And the GI50 [14]?
The GI50 was 2.34 µM (inactive).

And the GI50 [15]?
The GI50 was 3.44 µM (inactive).

And the GI50 [16]?
The GI50 was 1.12 µM (active).

What about the GI50 [17] of the same compound?
Its GI50 is 3.05 µM (inactive).

What about the GI50 [18] of the same compound?
Its GI50 is 2.39 µM (inactive).

And the GI50 [19]?
The GI50 was 1.39 µM (inactive).

And the GI50 [20]?
The GI50 was 3.75 µM (inactive).

And the GI50 [21]?
The GI50 was 2.13 µM (inactive).

And the GI50 [22]?
The GI50 was 2.51 µM (inactive).

What about the GI50 [23] of the same compound?
The GI50 was 1.69 µM (inactive).

And the GI50 [24]?
Its GI50 is 2.99 µM (inactive).

And the GI50 [25]?
Its GI50 is 2.47 µM (inactive).

And the GI50 [26]?
The GI50 was 1.24 µM (inactive).

What about the GI50 [27] of the same compound?
The GI50 was 1.96 µM (inactive).

What about the GI50 [28] of the same compound?
The GI50 was 2.15 µM (inactive).

What about the GI50 [29] of the same compound?
Its GI50 is 2.42 µM (inactive).

What about the GI50 [30] of the same compound?
The GI50 was 10.5 µM (inactive).

And the GI50 [31]?
The GI50 was 2.07 µM (inactive).

And the GI50 [32]?
Its GI50 is 2.99 µM (inactive).

And the GI50 [33]?
The GI50 was 1.77 µM (inactive).

What about the GI50 [34] of the same compound?
The GI50 was 3.37 µM (inactive).

What about the GI50 [35] of the same compound?
Its GI50 is 5.36 µM (inactive).

What about the GI50 [36] of the same compound?
Its GI50 is 1.69 µM (inactive).

What about the GI50 [37] of the same compound?
Its GI50 is 2.14 µM (inactive).

What about the GI50 [38] of the same compound?
The GI50 was 5.05 µM (inactive).

What about the GI50 [39] of the same compound?
Its GI50 is 2.09 µM (inactive).

And the GI50 [40]?
The GI50 was 2.65 µM (inactive).

And the GI50 [41]?
Its GI50 is 0.796 µM (active).

What about the GI50 [42] of the same compound?
The GI50 was 1.8 µM (inactive).

And the GI50 [43]?
Its GI50 is 3.08 µM (inactive).

What about the GI50 [44] of the same compound?
Its GI50 is 3.06 µM (inactive).

And the GI50 [45]?
Its GI50 is 6.31 µM (inactive).

What about the GI50 [46] of the same compound?
The GI50 was 2.43 µM (inactive).

And the GI50 [47]?
The GI50 was 6.92 µM (inactive).

And the GI50 [48]?
Its GI50 is 6.24 µM (inactive).

What about the GI50 [49] of the same compound?
The GI50 was 7.35 µM (inactive).

And the GI50 [50]?
The GI50 was 3.09 µM (inactive).

What about the GI50 [51] of the same compound?
The GI50 was 2.29 µM (inactive).

And the GI50 [52]?
Its GI50 is 2.79 µM (inactive).

What about the GI50 [53] of the same compound?
The GI50 was 2.26 µM (inactive).

What about the GI50 [54] of the same compound?
The GI50 was 2.49 µM (inactive).

And the GI50 [55]?
Its GI50 is 1.55 µM (inactive).

What about the GI50 [56] of the same compound?
Its GI50 is 4.93 µM (inactive).

What about the GI50 [57] of the same compound?
Its GI50 is 7.89 µM (inactive).

And the GI50 [58]?
The GI50 was 2.06 µM.

Which results are given for `CC(C)(C)NC(=O)/C(=C\Sc1ccccc1)c1ccccc1`?
GI50 [1]: 40.6 µM (inactive); GI50 [2]: > 72.1 µM (inactive); GI50 [3]: > 100 µM (inactive); GI50 [4]: 2.54 µM (inactive); GI50 [5]: > 74.6 µM (inactive); GI50 [6]: > 64 µM (inactive); GI50 [7]: > 100 µM (inactive); GI50 [8]: 19.6 µM (inactive); GI50 [9]: > 100 µM (inactive); GI50 [10]: > 100 µM (inactive); GI50 [11]: > 100 µM (inactive); GI50 [12]: 56.1 µM (inactive); GI50 [13]: > 73.8 µM (inactive); GI50 [14]: > 29 µM (inactive); GI50 [15]: > 60 µM (inactive); GI50 [16]: > 100 µM (inactive); GI50 [17]: 72.1 µM (inactive); GI50 [18]: 6.15 µM (inactive); GI50 [19]: > 100 µM (inactive); GI50 [20]: > 68.4 µM (inactive); GI50 [21]: > 100 µM (inactive); GI50 [22]: 71.1 µM (inactive); GI50 [23]: > 30.3 µM (inactive); GI50 [24]: > 100 µM (inactive); GI50 [25]: > 100 µM (inactive); GI50 [26]: > 100 µM (inactive); GI50 [27]: 46.6 µM (inactive); GI50 [28]: > 100 µM (inactive); GI50 [29]: > 100 µM (inactive); GI50 [30]: > 100 µM (inactive); GI50 [31]: > 95.5 µM (inactive); GI50 [32]: > 100 µM (inactive); GI50 [33]: 23.2 µM (inactive); GI50 [34]: > 100 µM (inactive); GI50 [35]: > 100 µM (inactive); GI50 [36]: > 65.6 µM (inactive); GI50 [37]: > 100 µM (inactive); GI50 [38]: > 100 µM (inactive); GI50 [39]: > 100 µM (inactive); GI50 [40]: 52.5 µM (inactive); GI50 [41]: > 100 µM (inactive); GI50 [42]: > 100 µM (inactive); GI50 [43]: > 41.7 µM (inactive); GI50 [59]: > 100 µM (inactive); GI50 [44]: > 100 µM (inactive); GI50 [45]: > 71 µM (inactive); GI50 [46]: > 100 µM (inactive); GI50 [47]: > 100 µM (inactive); GI50 [48]: > 100 µM (inactive); GI50 [49]: > 100 µM (inactive); GI50 [50]: > 76.2 µM (inactive); GI50 [51]: > 82.8 µM (inactive); GI50 [52]: 32.7 µM (inactive); GI50 [53]: > 100 µM (inactive); GI50 [55]: 20.3 µM (inactive); GI50 [56]: > 100 µM (inactive); GI50 [57]: > 100 µM (inactive); GI50 [58]: > 48.5 µM
